Test results taken from PubChem BioAssay (NCI).
Values joined by “and” are separate entries in the source; they are usually repeats but may differ in a detail not shown here. Equal values may be shown once.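 Method: 48-hour compound exposure of cells in 96-well plates, five concentrations, linear interpolation of endpoints. Here, GI50 denotes the concentration required for 50% inhibition of growth. TGI: total growth inhibition.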

Tests used:
Assay in all cases: NCI tumour cell line growth inhibition, 48 h
[1] = tested on: BT-549 breast
[2] = tested on: OVCAR-4 ovarian
[3] = tested on: 786-0 renal
[4] = tested on: CAKI-1 renal
[5] = tested on: ACHN renal
[6] = tested on: UACC-257 melanoma
[7] = tested on: HOP-62 NSCLC
[8] = tested on: MCF7 breast
[9] = tested on: SK-MEL-28 melanoma
[10] = tested on: UO-31 renal

Structure (SMILES)	GI50 [1]	TGI [1]	GI50 [2]	TGI [2]	GI50 [3]	TGI [3]	GI50 [4]	TGI [4]	GI50 [5]	TGI [5]	GI50 [6]	TGI [6]	GI50 [7]	TGI [7]	GI50 [8]	TGI [8]	GI50 [9]	TGI [9]	GI50 [10]	TGI [10]
COc1cc(-c2nc(SCCC(C)C)nc(Nc3ccc(S(N)(=O)=O)cc3)c2C#N)cc(OC)c1OC	2.12 µM	6.3 µM	3.45 µM	> 100 µM	2.16 µM	4.87 µM	4 µM	> 100 µM	2.79 µM	> 100 µM	3.9 µM	> 100 µM	4.12 µM	> 100 µM	3.19 µM	> 100 µM	4.04 µM	> 100 µM	1.82 µM	> 100 µM
C[N+]1=C(/C=C\C=C\c2ccccc2)C(C)(C)c2ccccc21	2.34 µM	9.29 µM	2.69 µM	13.8 µM	3.19 µM	10.7 µM	3.82 µM	13.5 µM	5.84 µM	18.7 µM	1.69 µM	4.52 µM	4.1 µM	15.1 µM	2.48 µM	11 µM	1.53 µM	3.46 µM	3.49 µM	15 µM
CN(C)c1ccc(/C=C/c2cc[n+](C)c(/C=C/c3ccc(N(C)C)cc3)c2)cc1	0.349 µM	1.61 µM	0.225 µM	1.01 µM	0.387 µM	1.7 µM	1.42 µM	7.4 µM	0.401 µM	2.4 µM	0.275 µM	0.853 µM	0.345 µM	2.31 µM	0.272 µM	1.13 µM	0.667 µM	2.7 µM	1.81 µM	11.9 µM
N#C/C(=C\c1ccc(Br)cc1)n1nnc2ccc(F)cc21	0.671 µM	3.63 µM	0.939 µM	5.31 µM	0.846 µM	2.6 µM	0.293 µM	1.35 µM	0.671 µM	2.06 µM	1.42 µM	4.25 µM	2.33 µM	7.52 µM	0.372 µM	2.85 µM	1.29 µM	3.25 µM	1.02 µM	2.2 µM
CN(C)CCNC(=O)c1ccc(NC(=O)c2nc([N+](=O)[O-])cn2C)cc1	–	> 100 µM	–	> 100 µM	–	> 100 µM	–	> 100 µM	–	> 100 µM	–	> 100 µM	–	> 100 µM	–	> 100 µM	–	> 100 µM	–	> 100 µM
C#CCOc1cccc(Nc2ncnc3cc(NC(=O)CCl)ccc23)c1	6.08 µM	20.3 µM	12.1 µM	35.7 µM	4.68 µM	18.5 µM	3.51 µM	15 µM	4.9 µM	18 µM	15.4 µM	32.3 µM	11.3 µM	28.8 µM	1.95 µM	7.99 µM	11 µM	24.4 µM	3.31 µM	15.7 µM
CC(C)=CC1=C2C3=C(C(=O)C4(O)Oc5c(C)c6c7c(c5OC24C)[C@@H](C)CC[C@@H]7[C@@H](C)C[C@H]6C=C(C)C)C(C)CCC3C(C)C1 (some centres not stated)	> 100 µM	> 100 µM	> 100 µM	> 100 µM	> 100 µM	> 100 µM	> 100 µM	> 100 µM	> 100 µM	> 100 µM	> 100 µM	> 100 µM	> 100 µM	> 100 µM	> 100 µM	> 100 µM	8.82 µM	> 100 µM	> 100 µM	> 100 µM
Cc1cc(C)c(-n2c(-c3ccc(Br)cc3)cs/c2=N\N=C2C=C(C(C)(C)C)C(=O)C(C(C)(C)C)=C2)c(C)c1	–	> 100 µM	–	> 100 µM	–	> 100 µM	–	> 100 µM	–	> 100 µM	–	> 100 µM	–	> 78.6 µM	–	> 100 µM	–	> 100 µM	–	> 100 µM
CCN(CC)c1ccc(C(=O)c2ccc(N(CC)CC)cc2)cc1	0.629 µM	16.5 µM	2.14 µM	> 100 µM	0.668 µM	28.3 µM	0.364 µM	> 36.7 µM	0.935 µM	> 100 µM	0.461 µM	> 59.2 µM	0.805 µM	98.2 µM	0.416 µM	> 74.4 µM	23.1 µM	> 100 µM	0.68 µM	64.2 µM
COc1cc(Nc2ncc(F)c(Nc3ccc4c(n3)N(COP(=O)(O)O)C(=O)C(C)(C)O4)n2)cc(OC)c1OC	1.56 µM and 1.57 µM	4.45 µM and 6.5 µM	1.69 µM and 1.74 µM	6.31 µM and 6.78 µM	1.32 µM and 0.858 µM	6.53 µM and 2.86 µM	0.456 µM and 0.645 µM	1.9 µM and > 10 µM	1.12 µM and 1.21 µM	12.2 µM and > 10 µM	10.6 µM and 5.57 µM	> 90.7 µM	2.25 µM and 0.753 µM	10.2 µM and 7.37 µM	3.02 µM and 3.32 µM	22.6 µM and > 10 µM	3.69 µM and 5.05 µM	21 µM and > 10 µM	0.685 µM and 0.348 µM	5.72 µM and 1.65 µM
CCN1CCN(CC(=O)N2c3cccc4cccc(c34)N(C(=O)CN3CCN(CC)CC3)C2c2cn(-c3ccccc3)nc2-c2cccc([N+](=O)[O-])c2)CC1	1.67 µM	3.24 µM	1.79 µM	3.71 µM	1.66 µM	3.17 µM	1.4 µM	2.9 µM	1.64 µM	3.08 µM	1.85 µM	3.68 µM	1.63 µM	3.28 µM	1.62 µM	3.24 µM	1.75 µM	3.2 µM	1.34 µM	2.73 µM
CCOC(=O)c1c2c(n3ccccc13)C(=O)c1ncccc1C2=O	0.0637 µM	41 µM	0.687 µM	12.3 µM	0.18 µM	13.8 µM	0.301 µM	28.5 µM	0.0343 µM	6.24 µM	0.28 µM	4.21 µM	0.0777 µM	8.86 µM	0.0284 µM	1.77 µM	0.134 µM	33.3 µM	0.0338 µM	3.79 µM
C=C1CC2(OC1=O)C(=O)Nc1ccccc12 (configuration not stated)	4.24 µM	17.1 µM	1.5 µM	3.37 µM	2.39 µM	6.64 µM	1.29 µM	2.65 µM	1.09 µM	2.29 µM	1.74 µM	4.24 µM	12.6 µM	29.6 µM	2.14 µM	6.17 µM	1.99 µM	4.26 µM	2.09 µM	5.79 µM
NCCCNCCCCNC(=O)C(O)NC(=O)CCCCCCN=C(N)N (configuration not stated)	1540 µM	750 µM and 4950 µM	2490 µM	619 µM and > 2810 µM	> 750 µM	> 5000 µM	540 µM and > 3340 µM	710 µM and > 5000 µM	2750 µM	> 5000 µM	> 4100 µM	> 5000 µM	3470 µM	750 µM and > 5000 µM	1750 µM	750 µM and > 5000 µM	> 3670 µM	> 5000 µM	2980 µM	619 µM and > 5000 µM
O=C1C(Cl)=C(NCc2ccco2)C(=O)c2ccccc21	22 µM	50.7 µM	6.91 µM	19.2 µM	29 µM	72.3 µM	58.1 µM	> 100 µM	27 µM	> 100 µM	7.81 µM	40 µM	17.1 µM	43.6 µM	2.39 µM	> 27.9 µM	6.89 µM	17.8 µM	38.5 µM	> 100 µM
COc1cc2c(cc1OC)C13CCN4CC5CCOC6CC(=O)N2C1C6C5CC43 (configuration not stated)	–	> 100 µM	–	> 100 µM	–	> 100 µM	–	> 100 µM	–	> 100 µM	–	> 100 µM	–	> 100 µM	–	> 100 µM	–	> 100 µM	–	> 100 µM
CC(=O)OCc1cc2ccccc2nc1C(Br)(Br)Br	–	27.2 µM	–	30.5 µM	–	46 µM	–	29.5 µM	–	27.3 µM	–	27 µM	–	56.3 µM	–	30.7 µM	–	42.6 µM	–	29.5 µM
COc1ccc(-c2ccc(-c3ccc(C(=N)N)o3)o2)cc1	4.55 µM	16.9 µM	2.22 µM	12.2 µM	2.22 µM	5.64 µM	1.75 µM	4.29 µM	1.8 µM	4.2 µM	11.1 µM	24.7 µM	1.51 µM	4.51 µM	0.325 µM	1.57 µM	1.67 µM	3.66 µM	1.72 µM	3.79 µM
OCC#Cc1ccccc1C#CCCCCCC#Cc1ccccc1C#CCO	19.8 µM	39.8 µM	41 µM	> 100 µM	16.8 µM	32.3 µM	19.3 µM	43.8 µM	27.1 µM	54 µM	15.7 µM	31.4 µM	16.2 µM	31.4 µM	18.5 µM	40.2 µM	29 µM	> 100 µM	17.1 µM	33.8 µM
CCCCCCCc1cc2c3c(nc4ccccc42)C(=O)c2cccnc2-c3n1	16.2 µM	33.2 µM	5.74 µM	13.8 µM	5.1 µM	10.5 µM	4.6 µM	9.51 µM	4.08 µM	8.19 µM	1.96 µM	3.46 µM	7.14 µM	20 µM	1.54 µM	5.92 µM	5.75 µM	11 µM	3.85 µM	11 µM
CN(Cc1cc(C(C)(C)C)cc(Br)c1O)Cc1cc(C(C)(C)C)cc(Br)c1O	–	14.4 µM	–	17.8 µM	–	13.8 µM	–	11.4 µM	–	9.01 µM	–	5.85 µM	–	15.5 µM	–	10.7 µM	–	17.4 µM	–	12.7 µM
Cc1cnc(C(=O)NNc2nc3sc4c(c3c(=O)n2C)C(C)CCC4)cn1 (configuration not stated)	1.03 µM	14 µM	0.163 µM	2.09 µM	0.511 µM	5.52 µM	0.333 µM	2.49 µM	0.308 µM	2.02 µM	0.353 µM	4.34 µM	0.304 µM	5.65 µM	0.29 µM	1.7 µM	0.537 µM	4.6 µM	0.322 µM	1.86 µM
Cc1ncc(C(=O)Nc2ccc(CN3CCN(C)CC3)c(C(F)(F)F)c2)cc1C#Cc1cnc(N)cc1C#N	1.36 µM	3.58 µM	0.144 µM	2.64 µM	0.38 µM	0.835 µM	0.154 µM	1.38 µM	0.189 µM	2 µM	0.288 µM	3.12 µM	0.573 µM	2.91 µM	1.69 µM	4.48 µM	0.0584 µM	1.69 µM	0.307 µM	1.33 µM
O=C(/C=C/c1ccc(C(F)(F)F)cc1)c1ccc(Nc2nc(NCCO)nc(Nc3ccc(Cl)cc3)n2)cc1	3.07 µM	7.97 µM	4.14 µM	15.5 µM	2.25 µM	5.36 µM	5.12 µM	18.8 µM	4.81 µM	17 µM	10.1 µM	31.2 µM	8.55 µM	22 µM	1.49 µM	5.56 µM	5.88 µM	18.3 µM	1.75 µM	4.39 µM
COC(=O)[C@@H](C)C[C@H](Cc1ccccc1)NC(=O)c1csc([C@@H](C[C@H](C(C)C)N(C)C(=O)[C@@H](NC(=O)[C@H]2CCCCN2C)C2CC2)OC(C)=O)n1	0.000506 µM and 0.00165 µM	0.0298 µM and 0.0146 µM	0.00909 µM and 0.006 µM	> 16.5 µM	0.000456 µM and 0.00165 µM	> 16.5 µM	0.00577 µM	–	0.00104 µM and 0.00165 µM	> 16.5 µM	–	–	0.000745 µM and 0.00165 µM	> 16.5 µM	–	> 16.5 µM	0.000934 µM	–	0.00516 µM and 0.00284 µM	> 16.5 µM
COC(=O)/C=C/c1cc2c(cc1-c1c(C(=O)O)cc(OC)c(OC)c1OC)OCO2	–	> 10 µM	–	> 10 µM	–	> 10 µM	–	> 10 µM	–	> 10 µM	–	> 10 µM	–	> 10 µM	–	> 10 µM	–	> 10 µM	–	–
O=C1c2ccccc2-c2c1c1ccccc1c(=O)n2CCCn1ccnc1	3.36 µM	> 100 µM	2.29 µM	> 100 µM	1.74 µM	7.72 µM	0.443 µM	2.05 µM	0.885 µM	3.43 µM	–	–	2.72 µM	13 µM	0.902 µM	> 100 µM	3.47 µM	> 100 µM	0.359 µM	> 100 µM
